According to patent publication US20240279202A1 (NURIX THERAPEUTICS, INC., priority 2021, published 2024):

Tests used:
ITK = molecular target: T1, ITK (Homo sapiens, UniProt Q08881); test: ITK degradation MSD (Meso Scale Discovery) assay; format: cell-based; parameters: either human Jurkat (Clone E6-1 ATCC TIB-152) or Motl4 (ATCC CRL-1552), were plated; endogenous in cells; host or cells: Jurkat clone E6-1 (ATCC TIB-152) or Molt4 (ATCC CRL-1552); settings: Jurkat or Molt4 cells, 4 or 6 hrs
T1 sequence (Q08881 1-620): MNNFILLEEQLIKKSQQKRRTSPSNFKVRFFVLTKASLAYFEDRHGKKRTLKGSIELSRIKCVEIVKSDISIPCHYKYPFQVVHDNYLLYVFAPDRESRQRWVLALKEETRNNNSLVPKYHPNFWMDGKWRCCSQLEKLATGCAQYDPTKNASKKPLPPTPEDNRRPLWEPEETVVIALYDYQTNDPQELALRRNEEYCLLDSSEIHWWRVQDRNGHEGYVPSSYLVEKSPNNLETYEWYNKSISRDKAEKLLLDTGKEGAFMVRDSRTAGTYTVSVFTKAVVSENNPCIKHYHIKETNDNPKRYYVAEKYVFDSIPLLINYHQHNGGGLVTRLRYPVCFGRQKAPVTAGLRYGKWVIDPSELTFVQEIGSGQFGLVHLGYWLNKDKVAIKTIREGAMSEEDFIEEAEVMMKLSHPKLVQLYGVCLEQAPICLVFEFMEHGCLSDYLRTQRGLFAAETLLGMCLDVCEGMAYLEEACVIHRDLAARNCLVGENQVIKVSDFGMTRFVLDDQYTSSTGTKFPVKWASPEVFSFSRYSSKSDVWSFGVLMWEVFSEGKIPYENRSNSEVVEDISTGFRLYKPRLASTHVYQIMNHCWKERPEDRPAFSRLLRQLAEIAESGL
Procedure: ITK Degradation MSD (Meso Scale Discovery) Assay Compound dilution series (7-point, 5 fold dilutions in DMSO, rows B-H with replicate in Column 1⁄2, 3⁄4, 5⁄6, 7,8, at 2000× the final required concentrations were prepared in 96 well plates (Falcon, cat. no. 353077). Row A, Column 1-8 were control DMSO. The 2000× solutions ranged from 2 mM to 128 nM (final assay concentration range 1 μM to […]). The 2000× solutions were added to cells in […], for a final DMSO concentration of 0.5% and final assay compound concentration of 1×. For the cells, either human Jurkat (Clone E6-1 ATCC TIB-152) or Motl4 (ATCC CRL-1552), were plated at 1×10^6 cells/mL, 100 μL/well ([…]) in complete RPMI (10% FBS, 1% L-glutamine). Cells were incubated for 4 or 6 hrs at 32° C./6% CO2. Following incubation, plates were centrifuged at 1200 rpm for 5 min. supernatant was removed and 50 μL of cell lysis buffer ((MSD Tris lysis buffer (R60TX), Complete Mini EDTA-free protease inhibitor (Sigma 11836170001), Protease Inhibitor Cocktail (Sigma, P2714), Phosphatase Inhibitor Cocktail 2 and 3 (Sigma, P5726 and P0044), and Benzonase (Sigma, E1014)) was added to each well. Plates were sealed and shook at 4° C. for 30 min. Plates were centrifuged and 45 μL was removed for plate assays. Assay plate preparation: Meso Scale Discovery (MSD) multi-array sm spot 96 well plates (Goat anti-Rabbit L^45-RA), were blocked with 3% BSA blocking buffer (3% Bovine Serum Albumin (Sigma A3059)+TBS 0.2% Tween-20) for 1 hr with gentle rocking at room temperature. Plates were then washed with 200 μL of 1× TBST (TBS 0.2% Tween-20) 3 times. After last wash, liquid was removed and 50 μL per well of capture antibody (abcam ITK Y402-ab32507) was added to plates at a 1:1000 dilution in blocking buffer (above). Plates were sealed and rocked at room temperature for 2 hrs. Plates were then washed 3 times with 200 μL of 1× TBST. After last wash, liquid was removed and 45 μL of cell lysate (from above) was added to each plate. Plates were sealed and rocked overnight at 4° C. Next day, cell lysates were removed, and assay plates were washed 3 times with 200 μL of 1× TBST. After last wash, liquid was removed and detection antibody (CST ITK (2F12) #2380) was added at 50 μL per well at a dilution of 1:1000 in blocking buffer. Plates were sealed and rocked at room temperature for 2 hrs. Plates were washed 3 times with 200 uL of 1× TBST. After last wash, liquid was removed, MSD Mouse anti-Rabbit sulfo tag (R32AC-1) was diluted to 1:1000 in blocking buffer. 50 μL was added to each well on the plate. Plates were sealed and incubated at room temperature for 1 hr. Plates were washed 3 times with 200 μL of 1× TBST. After last wash, liquid was removed and 150 μL of 1× MSD Read Buffer T ([…]) was then added to each well for ECL read out. For reading ECL signal, plate is read on a Meso Scale Discovery (MSD) MESO Sector S 600 plate reader. Percent ITK in then calculated as described below. Percent ITK remaining per sample was calculated as follows: [formula] Using Graphpad Prism, % ITK remaining values were plotted as a function of compound concentration. To determine DC50 and Dmax values, resulting curves were fit to the Prism curve-fitting equation “log(inhibitor) vs response-Variable slope (four parameters)” (reported best fit value IC50 used as DC50).

[1] = Mouse PK analysis (blood/plasma concentration after oral administration); format: in vivo; settings: mouse, plasma, oral, 90 mg/kg, mice
Procedure: Compounds 1, 3, 7, and 42 were formulated and administered at 90 mg/kg to mice by oral gavage (PO). Blood was collected at defined time points (after 1, 2, and 6 hours) after compounds administration to determine PK parameters. Concentration increased through 6 hours. Six hours later mice were sacrificed and splenocytes were isolated and used to prepare protein lysates. Total protein levels were determined in the lysates using the BCA assay according to standard methods. Equal amounts of protein were then analyzed by Western blot to determine the level of ITK expression in each sample. ITK band intensities were measured using Alpha View software and the percent of ITK remaining in each test animal was determined relative to the mean of ITK levels in vehicle control samples.
Compounds 16, 17, and 18 were administered to mice orally. After 6 hours or 24 hours, splenocytes cells were harvested. ITK was evaluated by Western blotting. Plasma concentrations were determined by LC/MS/MS. Plasma samples were protein precipitated by addition of 100 μl of acetonitrile containing 50 ng/ml of internal standard. The resulting mixture was vortexed and centrifuged at 4000 RPM for 5 minutes. An aliquot of the resultant supernatant (75 μl) was added to 75 μl of 0.1% formic acid in water to constitute the final sample for injection. Samples were injected on a Shimadzu Exion LC Binary Gradient AD Pump HLPC system connected to a Sciex QTRAP 6500+mass spectrometer. Five μl of sample was injected onto a Waters Acquity UPLC BEH C18 column 130A (2.1×30 mm, […]) at 40° C. utilizing a flow rate of 700 μl/minute. Mobile Phase A was 0.1% formic acid in water and mobile phase B was 0.1% formic acid in acetonitrile. A linear gradient of 15-95% B over 1.0 minute was used. The mass spectrometer was operated in positive ion electrospray mode with multiple reaction monitoring for maximum sensitivity. Sciex Analyst software (version 1.6.3) was used for LC/MS/MS instrument control and acquisition. Compound concentration was determined against a standard curve of internal standard versus compound peak area ratio. Noncompartmental PK parameters were determined using […] software (version 8.2.0.4383) from Certara. Plasma concentrations from the LC/MS/MS analyses, dose, route of administration, and desired units were utilized for PK parameter calculations. […] FIG. 4C provides the concentration over time of compound 17 following in vivo oral administration in the 6 hour and 24 hour assays.
Cmax, Tmax and AUClast were all calculated using a WinNonLin Phoenix 64 v 8.2.0.4383. Using non-compartmental analysis, Tmax, Cmax and AUClast were determined as follows: • Tmax—Time of maximum observed concentration. • Cmax—Maximum observed concentration, occurring at time Tmax, as defined above. • AUClast—Area under the curve from the time of dosing to the time of the last measurable (positive) concentration (Tlast).

DC50 (ITK) [nM]	Dmax (ITK) [%]	concentration at 2 h ([1]; 2 h, read-out: Cal. Conc. Total (μM) 2 h) [µM]	concentration at 6 h ([1]; 6 h, read-out: Cal. Conc. Total (μM) 6 h) [µM]	SMILES
20	92	–	–	C[C@@]12Cc3[nH]nc(C(=O)Nc4cnn([C@H](c5ccccc5)C5CN(C(=O)CCOCCOCCOCCOCCOCCOCCOCCOCCNc6cccc7c6C(=O)N(C6CCC(=O)NC6=O)C7=O)C5)c4)c3C[C@@H]1C2(F)F (stereo partly drawn) [Compound 30, (4aS,5aR)-N-(1-((1S)-(1-(1-((2-(2,6-dioxopiperidin-3-yl)-1,3-dioxoisoindolin-4-yl)amino)-3,6,9,12,15,18,21,24-octaoxaheptacosan-27-oyl)azetidin-3-yl)(phenyl)methyl)-1H-pyrazol-4-yl)-5,5-difluoro-5a-methyl-1,4,4a,5,5a,6-hexahydrocyclopropa[f]indazole-3-carboxamide]
44	95	–	–	C[C@@]12Cc3[nH]nc(C(=O)Nc4cnn([C@H](c5ccccc5)C5CN(CCOCCOCCOCCOCCOCCNc6cccc7c6C(=O)N(C6CCC(=O)NC6=O)C7=O)C5)c4)c3C[C@@H]1C2(F)F (stereo partly drawn) [Compound 31, (4aS,5aR)-N-(1-((1S)-(1-(17-((2-(2,6-dioxopiperidin-3-yl)-1,3-dioxoisoindolin-4-yl)amino)-3,6,9,12,15-pentaoxaheptadecyl)azetidin-3-yl)(phenyl)methyl)-1H-pyrazol-4-yl)-5,5-difluoro-5a-methyl-1,4,4a,5,5a,6-hexahydrocyclopropa[f]indazole-3-carboxamide]
25	69	–	–	C[C@@]12Cc3[nH]nc(C(=O)Nc4cnn([C@H](c5ccccc5)C5CN(C(=O)CCCCc6cccc7c6CN(C6CCC(=O)NC6=O)C7=O)C5)c4)c3C[C@@H]1C2(F)F (stereo partly drawn) [Compound 32, (4aS,5aR)-N-(1-((1S)-(1-(5-(2-(2,6-dioxopiperidin-3-yl)-1-oxoisoindolin-4-yl)pentanoyl)azetidin-3-yl)(phenyl)methyl)-1H-pyrazol-4-yl)-5,5-difluoro-5a-methyl-1,4,4a,5,5a,6-hexahydrocyclopropa[f]indazole-3-carboxamide]
1.6	72	–	–	C[C@@]12Cc3[nH]nc(C(=O)Nc4cnn([C@H](c5ccccc5)C5CN(C(=O)C6CN(C7CCN(c8ccc(NC9CCC(=O)NC9=O)cn8)CC7)C6)C5)c4)c3C[C@@H]1C2(F)F (stereo partly drawn) [Compound 36, (4aS,5aR)-N-(1-((1S)-(1-(1-(1-(5-((2,6-dioxopiperidin-3-yl)amino)pyridin-2-yl)piperidin-4-yl)azetidine-3-carbonyl)azetidin-3-yl)(phenyl)methyl)-1H-pyrazol-4-yl)-5,5-difluoro-5a-methyl-1,4,4a,5,5a,6-hexahydrocyclopropa[f]indazole-3-carboxamide]
0.2	84	0.0046	0.0024	C[C@@]12Cc3[nH]nc(C(=O)Nc4cnn([C@H](c5ccccc5)C5CN(C(=O)C6CCN(c7ccc8c(c7)C(=O)N(C7CCC(=O)NC7=O)C8=O)CC6)C5)c4)c3C[C@@H]1C2(F)F (stereo partly drawn) [Compound 38, (4aS,5aR)-N-(1-((1S)-(1-(1-(2-(2,6-dioxopiperidin-3-yl)-1,3-dioxoisoindolin-5-yl)piperidine-4-carbonyl)azetidin-3-yl)(phenyl)methyl)-1H-pyrazol-4-yl)-5,5-difluoro-5a-methyl-1,4,4a,5,5a,6-hexahydrocyclopropafindazole-3-carboxamide]
0.88	94	–	–	CC(C1CN(C(=O)C2CN(C3CCN(c4ccc5c(c4)C(=O)N(C4CCC(=O)NC4=O)C5=O)CC3)C2)C1)n1cc(NC(=O)c2n[nH]c3c2C[C@@H]2C(F)(F)[C@]2(C)C3)cn1 (stereo partly drawn) [Compound 39, (4aS,5aR)-N-(1-(1-(1-(1-(1-(2-(2,6-dioxopiperidin-3-yl)-1,3-dioxoisoindolin-5-yl)piperidin-4-yl)azetidine-3-carbonyl)azetidin-3-yl)ethyl)-1H-pyrazol-4-yl)-5,5-difluoro-5a-methyl-1,4,4a,5,5a,6-hexahydrocyclopropa[f]indazole-3-carboxamide]
0.57	86	–	–	C[C@@]12Cc3[nH]nc(C(=O)Nc4cnn([C@H](c5ccccc5)C5CN(CC6CN(c7ccc8c(c7)C(=O)N(C7CCC(=O)NC7=O)C8=O)CCO6)C5)c4)c3C[C@@H]1C2(F)F (stereo partly drawn) [Compound 41, (4aS,5aR)-N-(1-((1S)-(1-((4-(2-(2,6-dioxopiperidin-3-yl)-1,3-dioxoisoindolin-5-yl)morpholin-2-yl)methyl)azetidin-3-yl)(phenyl)methyl)-1H-pyrazol-4-yl)-5,5-difluoro-5a-methyl-1,4,4a,5,5a,6-hexahydrocyclopropa[f]indazole-3-carboxamide]
